Reference: paper PMC5155152, “A diverse intrinsic antibiotic resistome from a cave bacterium” (Nature Communications, 2016)
Converted amounts (≈) assume the structure as drawn. Numbered stars: 1 amine (or outer) side, 2 acyl side, 3 side chain; on linkers, the order of the positions; unused ones are H or OH. Bridge positions count the residues as written; N and C are the ends. Square brackets hold non-standard residues; d marks the D form. Peptide text beside a SMILES is read from it. * marks the point of attachment. Ileψ(thiazoline)Cys = CC[C@H](C)[C@H](N)C1=N[C@H](C(=O)*)CS1; NMePhe(4-NMe2) = CN[C@@H](Cc1ccc(N(C)C)cc1)C(=O)O; X1 = O=C([C@@H]1CC=C(CN2CCOCC2)CN1[*:1])[*:2]; Picolinoyl(3-OH) = O=C(c1ncccc1O)*; Phg = N[C@H](C(=O)O)c1ccccc1; dOrn = NCCC[C@@H](N)C(=O)O; dAbu = CC[C@@H](N)C(=O)O

tested on: T1, Paenibacillus sp. LC231; assay: microbe, parasite or virus in culture; parameters: antibacterial susceptibility, minimal inhibitory concentration (quantitative antibiogram); details: not given
T1 construct: LC231
Source text: (§1) We generated a quantitative antibiogram for Paenibacillus sp. LC231 for 40 different antibiotics that target diverse cellular processes and compared it with the susceptibility of a surface strain of Paenibacillus lautus ATCC 43898, the pathogen Staphylococcus aureus RN4220 and the environmental bacterium Kocuria rhizophila (formerly identified as Micrococcus luteus) (Supplementary Tables 1 and 2). […] Further experiments in this study investigate the molecular basis of resistance and not the contribution of each genetic determinant to the resistance phenotype of Paenibacillus sp. LC231. […] We focused our investigation on Paenibacillus sp. LC231 and determined that in addition to resistance to 14 classes of antibiotic, it inactivates 7 distinct classes.

| Structure (SMILES) | MIC [µg/mL] |
| --- | --- |
| N=C1NCCC([C@@H]2NC(=O)/C(=C/NC(N)=O)NC(=O)[C@H](CNC(=O)CC(N)CCCN)NC(=O)[C@H](CO)NC(=O)[C@@H](N)CNC2=O)N1 (mixture of isomers) [capreomycin] | 32 |
| NCC[C@H](O)C(=O)N[C@@H]1C[C@H](N)[C@@H](O[C@H]2O[C@H](CN)[C@@H](O)[C@H](O)[C@H]2O)[C@H](O)[C@H]1O[C@H]1O[C@H](CO)[C@@H](O)[C@H](N)[C@H]1O [Amikacin] | 16 (≈ 27.3 µM) |
| CN[C@@H]1[C@@H](O[C@H]2O[C@H](CO)[C@@H](N)[C@H](O)[C@H]2O)O[C@H]2C[C@@H](N)[C@@H](O[C@H]3[C@H](O)[C@@H](O)[C@H](N)C[C@@H]3N)O[C@@H]2[C@@H]1O [Apramycin] | 8 (≈ 14.8 µM) |
| CC[C@H]1OC(=O)[C@H](C)[C@@H](O[C@H]2C[C@@](C)(OC)[C@@H](O)[C@H](C)O2)[C@H](C)[C@@H](O[C@@H]2O[C@H](C)C[C@H](N(C)C)[C@H]2O)[C@](C)(O)C[C@@H](C)CN(C)[C@H](C)[C@@H](O)[C@]1(C)O [Azithromycin] | 16 (≈ 21.4 µM) |
| CC1=C(C(=O)O)N2C(=O)[C@@H](NC(=O)[C@H](N)c3ccccc3)[C@H]2SC1 [Cephalexin] | ≥ 128 |
| CCC[C@@H]1C[C@@H](C(=O)N[C@@H]([C@H]2O[C@H](SC)[C@H](O)[C@@H](O)[C@H]2O)[C@H](C)Cl)N(C)C1 [Clindamycin] | 16 (≈ 37.6 µM) |
| CC1=C\[C@@H](O)C[C@@H](F)Cc2nc(co2)C(=O)N2CCC[C@@H]2C(=O)O[C@H](C(C)C)[C@H](C)/C=C/C(=O)NC\C=C\1 [Flopristin] | 32 (≈ 60.2 µM) |
| C[C@@H]1O[C@@H]1P(=O)(O)O [Fosfomycin] | ≥ 128 |
| CC(=O)O[C@H]1C[C@@]2(C)[C@@H](C[C@@H](O)[C@H]3[C@@]4(C)CC[C@@H](O)[C@@H](C)[C@@H]4CC[C@@]32C)/C1=C(\CCC=C(C)C)C(=O)O [Fusidic acid] | 8 (≈ 15.5 µM) |
| NC[C@H]1O[C@H](O[C@H]2[C@H](O)[C@@H](O[C@H]3O[C@H](CO)[C@@H](O)[C@H](N)[C@H]3O)[C@H](N)C[C@@H]2N)[C@H](O)[C@@H](O)[C@@H]1O [Kanamycin] | ≥ 128 |
| C/C(=C\C(=O)OCCCCCCCCC(=O)O)C[C@@H]1OC[C@H](C[C@@H]2O[C@H]2[C@@H](C)[C@H](C)O)[C@@H](O)[C@H]1O [Mupirocin] | ≥ 100 |
| CN[C@@H]1[C@H](O)[C@H](NC)[C@H]2O[C@@]3(O)C(=O)C[C@@H](C)O[C@H]3O[C@@H]2[C@H]1O [Spectinomycin] | ≥ 128 |
| CN[C@@H]1[C@H](O[C@H]2[C@H](O[C@H]3[C@H](O)[C@@H](O)[C@H](N=C(N)N)[C@@H](O)[C@@H]3N=C(N)N)O[C@@H](C)[C@]2(O)C=O)O[C@@H](CO)[C@H](O)[C@H]1O [Streptomycin] | ≥ 128 |
| CN(C)[C@@H]1C(O)=C(C(N)=O)C(=O)[C@@]2(O)C(O)=C3C(=O)c4c(O)cccc4[C@@](C)(O)[C@H]3C[C@@H]12 [Tetracycline] | ≥ 128 |
| C=C[C@]1(C)C[C@@H](OC(=O)CSCCN(CC)CC)[C@]2(C)[C@H](C)CC[C@]3(CCC(=O)[C@H]32)[C@@H](C)[C@@H]1O [Tiamulin] | 32 (≈ 64.8 µM) |
| NC[C@H]1O[C@H](O[C@H]2[C@H](O)[C@@H](O[C@H]3O[C@H](CO)[C@@H](O)[C@H](N)[C@H]3O)[C@H](N)C[C@@H]2N)[C@H](N)C[C@@H]1O [Tobramycin] | 32 (≈ 68.4 µM) |
| O=C(N[C@H](CO)[C@H](O)c1ccc([N+](=O)[O-])cc1)C(Cl)Cl [chloramphenicol] | 32 (≈ 99 µM) |
| CC[C@H]1NC(=O)[C@@H](NC(=O)c2ncccc2O)[C@@H](C)OC(=O)[C@H](c2ccccc2)NC(=O)[C@@H]2CC=C(CN3CCOCC3)CN2C(=O)[C@H](Cc2ccc(N(C)C)cc2)N(C)C(=O)[C@@H]2CCCN2C1=O [linopristin] ({Picolinoyl(3-OH)}-T[dAbu]P[NMePhe(4-NMe2)][X1][Phg]; ester 1-C) | 64 (≈ 67.4 µM) |
| CC[C@H]1OC(=O)C[C@@H](O)[C@H](C)[C@@H](O[C@@H]2O[C@H](C)[C@@H](O[C@H]3C[C@@](C)(O)[C@@H](O)[C@H](C)O3)[C@H](N(C)C)[C@H]2O)[C@@H](CC=O)C[C@@H](C)C(=O)/C=C/C(C)=C/[C@@H]1CO[C@@H]1O[C@H](C)[C@@H](O)[C@@H](OC)[C@H]1OC [tylosin] | 16 (≈ 17.5 µM) |

Other lines, results leading:

| MIC [µg/mL] | Structure (SMILES) |
| --- | --- |
| 8 (≈ 22.9 µM) | CC1(C)S[C@@H]2[C@H](NC(=O)[C@H](N)c3ccccc3)C(=O)N2[C@H]1C(=O)O [Ampicillin] |
| 2 (≈ 4.39 µM) | CO/N=C(\C(=O)N[C@@H]1C(=O)N2C(C(=O)O)=C(COC(C)=O)CS[C@H]12)c1csc(N)n1 [Cefotaxime] |
| 0.25 (≈ 0.754 µM) | O=C(O)c1cn(C2CC2)c2cc(N3CCNCC3)c(F)cc2c1=O [Ciprofloxacin] |
| 0.25 (≈ 0.334 µM) | CC[C@H]1OC(=O)[C@H](C)[C@@H](O[C@H]2C[C@@](C)(OC)[C@@H](O)[C@H](C)O2)[C@H](C)[C@@H](O[C@@H]2O[C@H](C)C[C@H](N(C)C)[C@H]2O)[C@](C)(OC)C[C@@H](C)C(=O)[C@H](C)[C@@H](O)[C@]1(C)O [Clarithromycin] |
| 2 (≈ 2.73 µM) | CC[C@H]1OC(=O)[C@H](C)[C@@H](O[C@H]2C[C@@](C)(OC)[C@@H](O)[C@H](C)O2)[C@H](C)[C@@H](O[C@@H]2O[C@H](C)C[C@H](N(C)C)[C@H]2O)[C@](C)(O)C[C@@H](C)C(=O)[C@H](C)[C@@H](O)[C@]1(C)O [Erythromycin] |
| 2 (≈ 4.19 µM) | CNC(C)[C@@H]1CC[C@@H](N)[C@@H](O[C@H]2[C@H](O)[C@@H](O[C@H]3OC[C@](C)(O)[C@H](NC)[C@H]3O)[C@H](N)C[C@@H]2N)O1 (stereo partly shown) [Gentamicin] |
| 0.25 (≈ 0.692 µM) | C[C@H]1COc2c(N3CCN(C)CC3)c(F)cc3c(=O)c(C(=O)O)cn1c23 [Levofloxacin] |
| 1 (≈ 2.96 µM) | CC(=O)NC[C@H]1CN(c2ccc(N3CCOCC3)c(F)c2)C(=O)O1 [Linezolid] |
| 2 (≈ 5.22 µM) | C[C@@H](O)[C@H]1C(=O)N2C(C(=O)O)=C(S[C@@H]3CN[C@H](C(=O)N(C)C)C3)[C@H](C)[C@H]12 [Meropenem] |
| 4 (≈ 17.2 µM) | CCn1cc(C(=O)O)c(=O)c2ccc(C)nc21 [Nalidixic acid] |
| 2 (≈ 3.25 µM) | NC[C@@H]1O[C@H](O[C@H]2[C@@H](O)[C@H](O[C@@H]3[C@@H](O)[C@H](N)C[C@H](N)[C@H]3O[C@H]3O[C@H](CN)[C@@H](O)[C@H](O)[C@H]3N)O[C@@H]2CO)[C@H](N)[C@@H](O)[C@@H]1O [Neomycin] |
| 0.25 (≈ 0.408 µM) | CO[C@@H]1[C@@H](OC(N)=O)[C@@H](O)[C@H](Oc2ccc3c(O)c(NC(=O)c4ccc(O)c(CC=C(C)C)c4)c(=O)oc3c2C)OC1(C)C [Novobiocin] |
| 2 (≈ 2.46 µM) | CC[C@H]1OC(=O)[C@H](C)C(=O)[C@H](C)[C@@H](O[C@@H]2O[C@H](C)C[C@H](N(C)C)[C@H]2O)[C@](C)(OC)C[C@@H](C)C(=O)[C@H](C)[C@H]2N(CCCCn3cnc(-c4cccnc4)c3)C(=O)O[C@]12C [Telithromycin] |
| 1 (≈ 0.69 µM) | CN[C@H](CC(C)C)C(=O)N[C@H]1C(=O)N[C@@H](CC(N)=O)C(=O)N[C@H]2C(=O)N[C@H]3C(=O)N[C@H](C(=O)N[C@H](C(=O)O)c4cc(O)cc(O)c4-c4cc3ccc4O)[C@H](O)c3ccc(c(Cl)c3)Oc3cc2cc(c3O[C@@H]2O[C@H](CO)[C@@H](O)[C@H](O)[C@H]2O[C@H]2C[C@](C)(N)[C@H](O)[C@H](C)O2)Oc2ccc(cc2Cl)[C@H]1O [Vancomycin] |
| 1 (≈ 1.22 µM) | CO[C@H]1/C=C/O[C@@]2(C)Oc3c(C)c(O)c4c(O)c(c(/C=N/N5CCN(C)CC5)c(O)c4c3C2=O)NC(=O)/C(C)=C\C=C\[C@H](C)[C@H](O)[C@@H](C)[C@@H](O)[C@@H](C)[C@H](OC(C)=O)[C@@H]1C [rifampin] |

tested on: T2, MphI; assay: steady-state kinetics; type: biochemical, Paenibacillus sp. LC231; details: 400 μM tylosin, 50 mM HEPES pH 7.5, 40 mM KCl, 10 mM MgCl2, 25 °C
T2 construct: recombinant in E. coli BL21(DE3), pET vector, Ni-NTA purified

| Structure (SMILES) | Km [µM] |
| --- | --- |
| Nc1nc2c(ncn2[C@@H]2O[C@H](COP(=O)(O)OP(=O)(O)OP(=O)(O)O)[C@@H](O)[C@H]2O)c(=O)[nH]1 [GTP] | 10 ± 1.8 |

tested on: T3, AAC(6′)-34; assay: CoA liberation with DTDP, steady-state kinetics; type: biochemical, Paenibacillus sp. LC231; details: 500 μM acetyl-CoA, 25 mM MES pH 6.0, 1 mM EDTA, 25 °C
T3 construct: recombinant in E. coli BL21(DE3), pET vector, Ni-NTA purified

| Structure (SMILES) | Km [µM] |
| --- | --- |
| CN[C@@H]1[C@@H](O)[C@@H](O[C@@H]2[C@@H](O)[C@H](O[C@H]3OC(CN)=CC[C@H]3N)[C@@H](N)C[C@H]2N)OC[C@]1(C)O [sisomicin] | 4.7 ± 0.4 |

tested on: T1, Paenibacillus sp. LC231; assay: microbe, parasite or virus in culture; parameters: broth microdilution MIC, growth inhibition of Paenibacillus sp. LC231; details: not given; remark: another data set of the same source
Source text: as §1

| Structure (SMILES) | MIC [µg/mL] |
| --- | --- |
| CC[C@H](C)[C@H](N)C1=N[C@H](C(=O)N[C@@H](CC(C)C)C(=O)N[C@H](CCC(=O)O)C(=O)N[C@H](C(=O)N[C@H]2CCCCNC(=O)[C@H](CC(N)=O)NC(=O)[C@@H](CC(=O)O)NC(=O)[C@H](Cc3cnc[nH]3)NC(=O)[C@@H](Cc3ccccc3)NC(=O)[C@H]([C@@H](C)CC)NC(=O)[C@@H](CCCN)NC2=O)[C@@H](C)CC)CS1 [Bacitracin] ({Ileψ(thiazoline)Cys}-L[dE]IK[dOrn]I[dF]H[dD]N; lactam 4-C) | ≥ 128 |
| CCCCCCCCCC(=O)N[C@@H](Cc1c[nH]c2ccccc12)C(=O)N[C@H](CC(N)=O)C(=O)N[C@@H](CC(=O)O)C(=O)N[C@@H]1C(=O)NCC(=O)N[C@@H](CCCN)C(=O)N[C@@H](CC(=O)O)C(=O)N[C@H](C)C(=O)N[C@@H](CC(=O)O)C(=O)NCC(=O)N[C@H](CO)C(=O)N[C@@H]([C@H](C)CC(=O)O)C(=O)N[C@@H](CC(=O)c2ccccc2N)C(=O)O[C@@H]1C [Daptomycin] | 16 (≈ 9.87 µM) |
| C=C(NC(=O)C(=C)NC(=O)c1csc(C2=N[C@@H]3c4csc(n4)[C@H]4NC(=O)c5csc(n5)[C@H]([C@](C)(O)[C@@H](C)O)NC(=O)[C@H]5CSC(=N5)/C(=C/C)NC(=O)[C@H]([C@@H](C)O)NC(=O)c5csc(n5)[C@]3(CC2)NC(=O)[C@H](C)NC(=O)C(=C)NC(=O)[C@H](C)NC(=O)[C@H]([C@@H](C)CC)N[C@@H]2C=Cc3c([C@H](C)O)cc(nc3[C@H]2O)C(=O)O[C@@H]4C)n1)C(N)=O [Thiostrepton] | 0.25 (≈ 0.15 µM) |
| C[C@H]1O[C@H](O[C@H]2[C@H](O)[C@@H](O)[C@@H](O)[C@H](O)[C@@H]2O)[C@@H](N)C[C@@H]1N=C(N)C(=O)O [kasugamycin] | ≥ 128 |
